US8673976B2, “Medicament for prophylactic and/or therapeutic treatment of hepatic steatosis or non-alcoholic steatohepatitis” (Kowa Company, Ltd., priority 2007, dated 2014)

Assays:
[1] = tested on: mice; details: literature; cited from earlier work
[2] = tested on: rats; details: literature; cited from earlier work
[3] = tested on: C57BL/6N mice; assay: Evaluation of NIK-333 and ATRA for toxicity in mice (Example 2); assay type: in vivo, mouse; details: oral once per day for 2 weeks, versus soybean oil control
Method: 7-Week old C57BL/6N mice (Charles River Japan) were given with MK-333 or ATRA once per day for 2 weeks by forcible continuous oral administration. After completion of the test, S-TG concentrations and testis weights of individual mice were measured. To the control group, soybean oil was administered.

[4] = tested on: SD male rats on high fat diet (HFD32); assay: Action of NIK-333 for decreasing hepatic lipid amount in high fat diet rats (Example 1); assay type: in vivo, rat; details: oral once a day for 8 weeks, serum
From the text: For the experiment, 6-week old SD male rats (Charles River Japan) were used. HFD32 (Clea Japan) was used for the high fat diet group, and CE-2 (Clea Japan) was used for the normal control group. The feeding was restricted to 25±3 g for both of the groups. Administration of NIK-333 was started at the same time as the start of the loading of the high fat diet, and the drug was given once a day for 8 weeks by forcible continuous oral administration. After completion of the test, each liver was extracted, and triglyceride (H-TG) amount and cholesterol (H-T-chol) amount in the liver were measured. Hematoxylin-eosin (H.E.) and Oil Red O (O.R.) staining samples were prepared from the extracted liver, and histopathological examination was performed. Degree of fatty degeneration of the liver was graded into five categories on the basis of the examination of the H.E. staining sample, and scores were assigned. Further, from the O.R. staining sample, O.R. positive area in the liver sample area was calculated by using an image analyzer. Furthermore, triglyceride (S-TG), total cholesterol (S-T-chol), alanine aminotransferase (S-ALT), and aspartate aminotransferase (S-AST) levels in serum were measured.

[5] = tested on: recurrence of hepatoma; details: clinical, during the administration; cited from earlier work

Structure (SMILES)	testis weight [1]	testis weight [2]	S-TG concentration (FIG. 5) [3]	testis weight (FIG. 6) [3]	lipid concentration in blood (S-TG, S-T-chol; FIG. 3) [4]	liver function failure or other adverse effects caused by retinoids [5]
CC1=C(/C=C/C(C)=C/C=C/C(C)=C/C(=O)O)C(C)(C)CCC1 [ATRA, all-trans-retinoic acid]	decreased testis weight	decreased testis weight	increases the S-TG concentration	markedly decreases testis weight		
CC(C)=CCC/C(C)=C/CC/C(C)=C/C=C/C(C)=C/C(=O)O [NIK-333, (2E,4E,6E,10E)-3,7,11,15-tetramethyl-2,4,6,10,14-hexadecapentaenoic acid]			does not affect the concentration	does not affect the weight	without affecting lipid concentration in blood	not substantially observed
